# Experimental data: patent US5872104A, “Combinations and methods for reducing antimicrobial resistance” (Oridigm Corporation, priority 1994, dated 1999)
# Like-named read-outs stand apart in the source and are kept apart here.
# Experiments:
# [1] = not told; cited from earlier work
# [2] = test system: vaccinia virion mRNA(nucleoside-2'-)methyltransferase; conditions: cited from earlier work
# tRNA methylases = conditions: cited from earlier work
# [3] = test system: nucleosidase enzymes responsible for SAH metabolism; conditions: cited from earlier work
# poly(A)-RNA methylation = conditions: inhibitor level that still permitted cell growth; cited from earlier work
# [4] = test system: RNA methyltransferase from Streptomyces antibioticus; conditions: 100 μM; cited from earlier work
# [5] = dogs; cited from earlier work
# methyl transfer from SAM = conditions: cited from earlier work
# malarial growth = conditions: read-out: ED50 (the source's name); cited from earlier work
# vaccinia virus = conditions: cited from earlier work
# human retrovirus = conditions: cited from earlier work
# SAH hydrolase = conditions: cited from earlier work
# [6] = test system: vesicular stomatitis virus; conditions: primary rabbit kidney cells; cited from earlier work
# [7] = test system: porcine liver tRNA methyltransferase; conditions: cited from earlier work
# [8] = sc., rats; cited from earlier work
# hamster liver SAHH = conditions: cited from earlier work
# human liver SAHH = conditions: cited from earlier work
# Mycobacterium leprae = conditions: 12 μg/mouse every 12 hours, 15 doses, local; cited from earlier work
# [9] = test system: transfer and ribosomal RNA (tRNA and rRNA) methylases; conditions: cited from earlier work
# SAM-synthetase = conditions: in vivo; cited from earlier work
# glutathione = conditions: ip.; 4.5 mmol/kg buthionine sulfoximine and […] diethyl maleate; cited from earlier work
# [10] = iv., mice; cited from earlier work
# [11] = test system: mature rRNA in Novikoff hepatoma cells; conditions: cited from earlier work
# rRNA processing = conditions: cited from earlier work
# [12] = test system: tRNA methylases isolated from E. coli; conditions: cited from earlier work
# [13] = test system: vaccinia virion mRNA(guanine-7)methyltransferase; conditions: 100 μM; cited from earlier work
# RNA methyltransferase = conditions: cited from earlier work
# cytotoxicity = conditions: cited from earlier work
# [14] = test system: 28S rRNA, 18S rRNA and tRNA; conditions: NPA 10 μM; c^3 -NPA 10 μM; c^3 -Ari 100 μM; cited from earlier work
# [15] = test system: S. aureus 27660 (erythromycin resistant); type: cell-based; conditions: for enhanced killing with erythromycin: in combination with erythromycin
# SAHH hydrolase = conditions: cited from earlier work
# SAM synthetase = conditions: cited from earlier work
# [16] = test system: tumor-derived methionine adenosyltransferases; conditions: cited from earlier work
# L1210 cells [17] = conditions: absence of polyamine depletion; cited from earlier work
# [18] = test system: S. aureus 6538 (erythromycin susceptible); experiment: Erythromycin disk susceptibility with inhibitor pre-mixed in agar; type: cell-based; conditions: inhibitor pre-mixed with BHIA or TSA, with erythromycin (FIG. 2)
# rat leukemia (BNML) = conditions: nitrous oxide plus cycloleucine; cited from earlier work
# [19] = test system: internal m^6 A of late SV40 mRNA; conditions: 0.5 mg/ml; cited from earlier work
# adenosine deaminase = conditions: cited from earlier work
# viruses = conditions: cited from earlier work
# murine L929 SAHH = conditions: cited from earlier work
# SAM pools in L1210 cells = conditions: cited from earlier work
# L1210 cells [20] = experiment: Growth inhibition in L1210 cell culture; type: cell-based
# [21] = test system: N- and O-methylation of mRNA; conditions: 100 μM; cited from earlier work
# [22] = test system: SAM-dependent methylations; conditions: cited from earlier work
# polyamine biosynthesis = conditions: cited from earlier work
# cell culture = conditions: cited from earlier work
# [23] = test system: rat SAM synthetase M-2 isozyme; conditions: cited from earlier work
# [24] = test system: rat SAM synthetase M-1 isozyme; conditions: cited from earlier work
# RNA methylation = conditions: cited from earlier work
# [25] = test system: cell transformation by Rous sarcoma virus; conditions: concentrations not toxic to normal cells; cited from earlier work
compound,measurement,setting,value
"Nc1ncnc2c1ccn2[C@@H]1O[C@H](CSCCC(N)C(=O)O)[C@@H](O)[C@H]1O (stereo partly shown) [STH, S-Tubercidinylhomocysteine]",membrane permeation,[1],able to permeate cell membranes
same,inhibition,[2],particularly potent inhibitor
same,inhibition of tRNA methylases relative to SAH,tRNA methylases,retains the inhibitory potency of SAH on tRNA methylases
same,susceptibility to nucleosidase,[3],not susceptible to the nucleosidase enzymes
same,inhibition of poly(A)-RNA methylation,poly(A)-RNA methylation,Inhibition of cytoplasmic methylation
"Nc1ncnc2c1ncn2[C@@H]1O[C@H](CSCC[C@H](N)C(=O)O)[C@@H](O)[C@H]1O [S-Adenosylhomocysteine, S-adenosylhomocysteine]",inhibition,[4],97%
same,uptake and excretion,[5],not taken up and excreted unchanged in urine
same,inhibition,methyl transfer from SAM,effective inhibitors
"Nc1ncnc2c1ncn2[C@@H]1C=C(CO)[C@@H](O)[C@H]1O [NPA, neplanocin A]",IC50,malarial growth,3 µM
same,inhibition of plaque formation,vaccinia virus; 0.5 μM,84%
same,inhibition of plaque formation,vaccinia virus; 1 μM,95%
same,toxicity to the host cells,vaccinia virus; 0.5 and 1 μM,little toxicity to the host cells
same,effective inhibitory concentration,human retrovirus,~0.2 µg/mL
same,Ki,SAH hydrolase; De Clercq & Cools (1985),0.002 µM
same,SAH hydrolase inhibition,SAH hydrolase,potent inhibitor of SAH hydrolase
same,minimum inhibitor concentration (50% reduction of cytopathogenicity),[6],0.018 µg/mL
NC(=O)c1cccnc1 [Nicotinamide],inhibition of tRNA methyltransferase,[7],inhibition of porcine liver tRNA methyltransferase activity
same,LD50,[8],1680 mg/kg
"Nc1ncnc2c1ncn2[C@@H]1O[C@H](CO)[C@@H](O)[C@H]1Cl [CLA, 2'-deoxy-2'-chloroadenosine]",inhibition,hamster liver SAHH,inhibitor
same,inhibition,human liver SAHH,inhibitor
polyinosinate,multiplication of M. leprae,Mycobacterium leprae,inhibit multiplication of Mycobacterium leprae
same,combination with adenine and adenosine,[9],particularly effective in combination with adenine and adenosine
same,inhibition of tRNA and rRNA methylases,[9],inhibits transfer and ribosomal RNA (tRNA and rRNA) methylases
same,inhibition by base,[9]; methylases of individual bases,inhibition of adenine methylases occurred to the greatest extent and guanine methylases to the least
"CCCCS(=N)(=O)CCC(N)C(=O)O (stereo not shown) [buthionine sulfoximine, CH3 (CH2)2 S (O)(=NH)CH2 CH2 CH(NH2)COOH]","SAM-synthetase activity, % of untreated animals",SAM-synthetase,about 40%
same,depletion of glutathione,glutathione,depleted liver and aortic glutathione
"Nc1ncnc2c1ccn2[C@@H]1O[C@H](CO)[C@@H](O)[C@H]1O [Tubercidin, 7-deazaadenosine]",LD50,[10],45 mg/kg
same,formation of mature rRNA,[11],inhibit the formation of mature 28S and 18
same,SAH hydrolase inhibition,SAH hydrolase,inhibits SAHH
same,rRNA processing,rRNA processing,inhibits rRNA processing in addition to methylation of tRNA and protein and nucleic acid synthesis
same,inhibition of E. coli tRNA methylases,[12],inhibitory to tRNA methylases isolated from E. coli
CNc1ncnc2c1ncn2[C@@H]1O[C@H](CSCC[C@H](N)C(=O)O)[C@@H](O)[C@H]1O [S-(N^6 -methyladenosyl)-L-homocysteine],inhibition,[13],85%
same,potency relative to SAH,RNA methyltransferase,nearly as potent an RNA methyltransferase inhibitor as SAH
"Nc1nccc2c1ncn2[C@@H]1C=C(CO)[C@@H](O)[C@H]1O [3-Deazaneplanocin A, 3-deazaneplanocin A]",cytotoxicity relative to neplanocin A,cytotoxicity,significantly less cytotoxic than neplanocin A
same,"methylation of 28S rRNA, 18S rRNA and tRNA",[14],"inhibit the methylation of 28S rRNA, 18S rRNA and tRNA"
same,enhanced killing with erythromycin,[15],enhanced the killing
same,antiviral activity and cytotoxicity vs first generation,SAHH hydrolase,retained antiviral activity and considerably lower cytotoxicity than their parent first generation inhibitors
"NC1(C(=O)O)CCCC1 [cycloleucine, 1-aminocyclopentane-1-carboxylic acid]",SAM synthetase inhibition,SAM synthetase,inhibitor of SAM synthetase
same,inhibition,[16],effective inhibitors
same,IC50,L1210 cells [17],5000 µM
same,increase in the size of the clear zone,[18],increase in the size of the clear zone
same,growth inhibiting effects,rat leukemia (BNML),synergistic growth inhibiting effects
same,"improved killing, increase over control",[15]; 0.1M in Brain Heart Infusion Agar (FIG. 3),240%
same,increase in the size of the clear zone,"[15]; inhibitor pre-mixed with BHIA or TSA, with erythromycin (FIG. 3)",increase in the size of the clear zone
same,decrease in internal m^6 A,[19],> 30%
CC(O)C1=C[C@@H](n2cnc3c(N)ncnc32)[C@H](O)[C@@H]1O (stereo partly shown) [6'-C-methylneplanocin A],resistance to adenosine deaminase,adenosine deaminase,virtually resistant to adenosine deaminase
same,antiviral potency and selectivity vs neplanocin A,viruses,surpassing neplanocin A both in antiviral potency and selectivity
same,SAHH inhibition,murine L929 SAHH,good inhibitor of murine L929 SAHH
"CO/C=C\[C@H](N)C(=O)O (stereo in doubt) [L-cis-AMB, L-2-amino-4-methoxy-cis-but-3-enoic acid]",SAM synthetase inhibition,SAM synthetase,most potent methionine-analogue inhibitor of SAM synthetase at that time
same,IC50,L1210 cells [17],400 µM
same,depletion of SAM,"SAM pools in L1210 cells; 1 mM, cultured L1210 cells",rapid and near-total depletion of SAM by 4 hours
same,SAM pools in intact cells,SAM pools in L1210 cells; intact cells,rapidly depleting SAM pools in intact cells without affecting precursor incorporation into macromolecules
same,"IC50, fold lower than that of cycloleucine",L1210 cells [20],about 10 fold
Nc1nccc2c1ncn2[C@@H]1O[C@H](CO)[C@@H](O)[C@H]1O [3-deazaadenosine],inhibition of N- and O-methylation of mRNA,[21],31-83%
"CSC[C@H]1O[C@@H](n2cnc3c(N)ncnc32)[C@H](O)[C@@H]1O [Methylthioadenosine, 5'-Deoxy-5'-(methylthio)adenosine]",inhibition of SAM-dependent methylations,[22],inhibitor of several SAM-dependent methylations
same,enhanced killing with erythromycin,[15],enhanced the killing
same,inhibition of spermine and spermidine synthesis,polyamine biosynthesis,inhibitor of spermine and spermidine synthesis
same,inhibition,methyl transfer from SAM,effective inhibitors
Nc1ncnc2c1ncn2[C@@H]1C[C@H](O)[C@@H](O)[C@H]1O (relative stereo) [(±)-5-Noraristeromycin],times less cytotoxic,cell culture,10 to 20 times
same,SAH hydrolase inhibition,SAH hydrolase,inhibitors of SAHH
"Nc1ncnc2c1ncn2[C@@H]1O[C@H]([C@H](CSCC[C@H](N)C(=O)O)OP(=O)(O)OP(=O)(O)NP(=O)(O)O)[C@@H](O)[C@H]1O [5'(R)-(C)-[(L-homocysteine-S-yl)methyl]adenosine 5'-(β,γ-imidotriphosphate)]",inhibition,[23],most effective inhibitor
same,inhibition,[24],most effective inhibitor
"CC(C)CSC[C@H]1O[C@@H](n2cnc3c(N)ncnc32)[C@H](O)[C@@H]1O [SIBA, 5'-deoxy-5'-S-isobutyl-adenosine]",inhibition,[4],55%
same,inhibition of RNA methylation,RNA methylation; 1 mM,~ 65%
same,inhibition of methylation in whole cells,RNA methylation,strongly inhibit methylation in whole cells
same,methylation of eukaryotic mRNA,RNA methylation; especially that of the 5' cap,inhibits the methylation of eukaryotic mRNA
same,potency as inhibitor,[25],most potent
